Assay results from article PMC7023430, “4-Aminobenzoic Acid Derivatives: Converting Folate Precursor to Antimicrobial and Cytotoxic Agents” (Biomolecules, 2019).
Values after ≈ are worked out from the molar mass of the structure shown. Read-outs that look alike come from different tables or passages of the source.

Key:
eight fungal strains = experiment: Antifungal activity; format: cell-based; settings: statement over the fungal panel; time not stated
Procedure: (§1) The antifungal properties were evaluated against five yeast strains, namely: Candida albicans ATCC 44859, Candida tropicalis 156, Candida krusei […], Candida glabrata 20/I, Trichosporon […] 1188 and three strains of filamentous fungi: Aspergillus fumigatus 231, Lichtheimia corymbifera 272, and Trichophyton interdigitale 445. A microdilution broth method was performed according to EUCAST II, III instructions with slight modifications. Briefly, tested compounds were dissolved in DMSO and diluted in a twofold manner with RPMI-1640 medium with L-glutamine, supplemented with 2% glucose (w/v) and buffered to pH 7.0 with 3 morpholinopropane-1-sulfonic acid (all components were purchased from Sigma-Aldrich, USA). […] Positive controls consisted of test microbe solely, while negative controls consisted of medium and DMSO. Internal quality control was included too. Visual inspection was used for MIC endpoints evaluation. The experiments were conducted in duplicates. For the results to be valid, the difference in MIC determined from two parallel measurements must not be greater than one step on the dilution scale. PABA and triazole antimycotic drug fluconazole were involved as the reference compounds.

phytopathogenic fungi = tested on: phytopathogenic fungi; parameters: method as in PMID 29283262; settings: read-out: IC50 of PABA, phytopathogenic fungi; cited from earlier work
Candida krusei E28 = experiment: Antifungal microdilution broth method, C. krusei; format: cell-based; settings: Pichia kudriavzevii
Procedure: as §1

[1] = tested on: Mycobacterium kansasii 235/80; experiment: Antimycobacterial micromethod in Šula's medium, M. kansasii 235/80; format: cell-based
[2] = tested on: Aspergillus fumigatus 231; experiment: Antifungal microdilution broth method, A. fumigatus; format: cell-based
Procedure: as §1

[3] = tested on: Enterococcus faecalis ATCC 29212, CCM 4224; experiment: Antibacterial microdilution broth method, E. faecalis; format: cell-based; settings: Enterococcus faecalis
[4] = tested on: M. kansasii 6509/96 (clinical isolate); experiment: Antimycobacterial micromethod in Šula's medium, M. kansasii 6509/96; format: cell-based; settings: Mycobacterium kansasii
[5] = tested on: Staphylococcus aureus ATCC 29213, CCM 4223; experiment: Antibacterial microdilution broth method, S. aureus; format: cell-based
[6] = tested on: Staphylococcus epidermidis H 6966/08; experiment: Antibacterial microdilution broth method, S. epidermidis; format: cell-based; settings: Staphylococcus epidermidis, H6966/08, S. epidermidis
[7] = tested on: Lichtheimia corymbifera 272; experiment: Antifungal microdilution broth method, L. corymbifera; format: cell-based
Procedure: as §1

[8] = tested on: Trichophyton interdigitale 445; experiment: Antifungal microdilution broth method, T. interdigitale; format: cell-based
Procedure: as §1

[9] = tested on: Mycobacterium tuberculosis H37Rv (331/88); experiment: Antimycobacterial micromethod in Šula's medium, M. tuberculosis; format: cell-based
[10] = tested on: methicillin-resistant Staphylococcus aureus ATCC 43300, CCM 4750 (MRSA); experiment: Antibacterial microdilution broth method, MRSA; format: cell-based; settings: Staphylococcus aureus
[11] = tested on: Escherichia coli ATCC 25922, CCM 3954; experiment: Antibacterial microdilution broth method, E. coli; format: cell-based; settings: Escherichia coli
[12] = tested on: ESBL-positive Klebsiella pneumoniae J 14368/08
[13] = tested on: Pseudomonas aeruginosa ATCC 27853, CCM 3955; experiment: Antibacterial microdilution broth method, P. aeruginosa; format: cell-based; settings: Pseudomonas aeruginosa, P. aeruginosa
[14] = tested on: E. coli, Listeria monocytogenes and Salmonella enteritidis; parameters: method as in PMID 7730199; settings: strains distinct from this study; cited from earlier work
Candida glabrata 20/I = experiment: Antifungal microdilution broth method, C. glabrata; format: cell-based; settings: Nakaseomyces glabratus
Procedure: as §1

[15] = tested on: Klebsiella pneumoniae D 11750/08
[16] = tested on: Candida albicans ATCC 44859; experiment: Antifungal microdilution broth method, C. albicans; format: cell-based
Procedure: as §1

[17] = tested on: four Gram-positive and four Gram-negative strains; experiment: Antibacterial activity; format: cell-based; settings: statement over the bacterial panel; time not stated; read-out: MIC, antibacterial activity
Candida tropicalis 156 = experiment: Antifungal microdilution broth method, C. tropicalis; format: cell-based
Procedure: as §1

[18] = tested on: Mycobacterium avium 330/88; experiment: Antimycobacterial micromethod in Šula's medium, M. avium; format: cell-based
Trichosporon asahii 1188 = experiment: Antifungal microdilution broth method, T. asahii; format: cell-based
Procedure: as §1

In the case of Nc1ccc(C(=O)O)cc1 [PABA 1, 4-aminobenzoic acid], the MIC (eight fungal strains) is listed as greater than 500 µM, the IC50 (phytopathogenic fungi) is listed as 1000 to 3000 µM and the MIC (Candida krusei E28; 24 h, read-out: MIC CK 24 h) is listed as greater than 500 µM. The MIC (Candida krusei E28; 48 h, read-out: MIC CK 48 h) was greater than 500 µM, the MIC ([1]; 235/80, 168 h, 7 days incubation at 37 °C, read-out: MIC M. kansasii 235/80 7 d) was 1000 µM (≈ 137 µg/mL) and the MIC ([1]; 235/80, 336 h, 14 days incubation at 37 °C, read-out: MIC M. kansasii 235/80 14 d) was greater than 1000 µM. For the same compound, the MIC ([1]; 235/80, 504 h, 21 days incubation at 37 °C, read-out: MIC M. kansasii 235/80 21 d) was greater than 1000 µM, the MIC ([2]; 24 h, read-out: MIC AF 24 h) was greater than 500 µM and the MIC ([2]; 48 h, read-out: MIC AF 48 h) was greater than 500 µM. For the same compound, the MIC ([3]; 24 h incubation, read-out: MIC EF 24 h) was greater than 500 µM, the MIC ([3]; 48 h incubation, read-out: MIC EF 48 h) was greater than 500 µM and the MIC ([4]; 168 h, 7 days incubation at 37 °C, read-out: MIC M. kansasii 6509/96 7 d) was 1000 µM (≈ 137 µg/mL). It also gave an MIC ([4]; 336 h, 14 days incubation at 37 °C, read-out: MIC M. kansasii 6509/96 14 d) of 1000 µM (≈ 137 µg/mL), an MIC ([4]; 504 h, 21 days incubation at 37 °C, read-out: MIC M. kansasii 6509/96 21 d) of 1000 µM (≈ 137 µg/mL) and an MIC ([5]; 24 h incubation, read-out: MIC SA 24 h) greater than 500 µM. The MIC ([5]; 48 h incubation, read-out: MIC SA 48 h) was greater than 500 µM, the MIC ([6]; 24 h incubation, read-out: MIC SE 24 h) was greater than 500 µM and the MIC ([6]; 48 h incubation, read-out: MIC SE 48 h) was greater than 500 µM. For the same compound, the MIC ([7]; 24 h, read-out: MIC LC 24 h) was greater than 500 µM, the MIC ([7]; 48 h, read-out: MIC LC 48 h) was greater than 500 µM and the MIC ([8]; 72 h, read-out: MIC TI 72 h) was greater than 500 µM. It also gave an MIC ([8]; 120 h, read-out: MIC TI 120 h) greater than 500 µM, an MIC ([9]; 336 h, 14 days incubation at 37 °C, read-out: MIC Mtb. 331/88 14 d) greater than 1000 µM and an MIC ([9]; 504 h, 21 days incubation at 37 °C, read-out: MIC Mtb. 331/88 21 d) greater than 1000 µM. The MIC ([10]; 24 h incubation, read-out: MIC MRSA 24 h) was greater than 500 µM, the MIC ([10]; 48 h incubation, read-out: MIC MRSA 48 h) was greater than 500 µM and the MIC ([11]; 24 h incubation, read-out: MIC EC 24 h) was greater than 500 µM. For the same compound, the MIC ([11]; 48 h incubation, read-out: MIC EC 48 h) was greater than 500 µM, the “MIC KP-E 24 h” value ([12]; 24 h) was greater than 500 µM and the “MIC KP-E 48 h” value ([12]; 48 h) was greater than 500 µM. For the same compound, the MIC ([13]; 24 h incubation, read-out: MIC PA 24 h) was greater than 500 µM, the MIC ([13]; 48 h incubation, read-out: MIC PA 48 h) was greater than 500 µM and the “MIC of PABA” value [14] was 9000 to 24000 µM. The MIC (Candida glabrata 20/I; 24 h, read-out: MIC CG 24 h) was greater than 500 µM, the MIC (Candida glabrata 20/I; 48 h, read-out: MIC CG 48 h) was greater than 500 µM and the “MIC KP 24 h” value ([15]; 24 h) was greater than 500 µM. For the same compound, the “MIC KP 48 h” value ([15]; 48 h) was greater than 500 µM, the MIC ([16]; ATCC44859, 24 h, read-out: MIC CA 24 h) was greater than 500 µM and the MIC ([16]; ATCC44859, 48 h, read-out: MIC CA 48 h) was greater than 500 µM. It also gave an MIC [17] greater than 500 µM, an MIC (Candida tropicalis 156; 24 h, read-out: MIC CT 24 h) greater than 500 µM and an MIC (Candida tropicalis 156; 48 h, read-out: MIC CT 48 h) greater than 500 µM. It also gave an MIC ([18]; 330/88, 336 h, 14 days incubation at 37 °C, read-out: MIC M. avium 330/88 14 d) greater than 1000 µM, an MIC ([18]; 330/88, 504 h, 21 days incubation at 37 °C, read-out: MIC M. avium 330/88 21 d) greater than 1000 µM and an MIC (Trichosporon asahii 1188; 24 h, read-out: MIC TA 24 h) greater than 500 µM. It also gave an MIC (Trichosporon asahii 1188; 48 h, read-out: MIC TA 48 h) greater than 500 µM.
